These are literature values, as cited in patent US20110311619A1 (Ethypharm, priority 2008, published 2011).

Consider `CC(C)(Oc1ccc(C(=O)c2ccc(Cl)cc2)cc1)C(=O)O` [fenofibric acid], for which the mean plasma concentration result (dose of 300 mg fenofibrate per day) was “roughly 15 μg/ml”. Moreover, the plasma elimination half-life entry (in vivo) is “roughly 20 hours”. Besides, the “time after ingestion at which maximum plasma concentration is reached” value (on average, after ingestion of the drug) is given as “five”.
